For 34 molecules, MIC results are on record in ChEMBL document CHEMBL1142033, “Synthesis of isonicotinic acid N'-arylidene-N-[2-oxo-2-(4-aryl-piperazin-1-yl)-ethyl]-hydrazides as antituberculosis agents” (2005).

Structures are written as SMILES. Converted amounts (≈) assume the structure as drawn.

Common to all, as to format: functional
The subject of assay [1] is Mycobacterium tuberculosis. The assay can be described thus: Minimum inhibitory concentration against resistant Mycobacterium tuberculosis clinical isolates; N=9.
For assay [2], the system named is Mycobacterium tuberculosis. The assay can be described thus: Minimum inhibitory concentration against resistant Mycobacterium tuberculosis clinical isolates; N=9; Range 2-4.
Assay [3] has as its system Mycobacterium tuberculosis. The assay can be described thus: Minimum inhibitory concentration against resistant Mycobacterium tuberculosis clinical isolates; N=9; range=4-8.
Assay [4] concerns Mycobacterium tuberculosis. The assay can be described thus: Minimum inhibitory concentration against resistant Mycobacterium tuberculosis clinical isolates; N=9; range=8-16.
The test system of assay [5] is Mycobacterium tuberculosis. The assay can be described thus: Minimum inhibitory concentration against resistant Mycobacterium tuberculosis clinical isolates; N=9; Range=8-16.
Assay [6] has as its system Mycobacterium tuberculosis. Put plainly: Minimum inhibitory concentration against resistant Mycobacterium tuberculosis clinical isolates; N=9; Range=2-16.

For the molecule `O=C(CN(/N=C/c1ccccc1Cl)C(=O)c1ccncc1)N1CCN(c2ccc(F)cc2)CC1`, in assay [1], the MIC (usually the smallest concentration in the dilution series that meets the test's criterion for growth inhibition) was > 16 µg/mL. The same measure, in the same setting: to `O=C(CN(/N=C/c1cccc(Cl)c1)C(=O)c1ccncc1)N1CCN(c2ccc([N+](=O)[O-])cc2)CC1` belongs > 16 µg/mL; to `O=C(CN(/N=C/c1ccc(Cl)cc1Cl)C(=O)c1ccncc1)N1CCN(c2ccc(Cl)cc2)CC1`, 16 µg/mL (≈ 30.1 µM); to `O=C(CN(/N=C/c1ccc(Cl)cc1Cl)C(=O)c1ccncc1)N1CCN(c2ccc(F)cc2)CC1`, > 16 µg/mL.

Consider `O=C(CN(/N=C/c1cccc(Cl)c1)C(=O)c1ccncc1)N1CCN(c2ccc(Cl)cc2)CC1`, for which, in assay [1], the MIC is > 16 µg/mL. Consider `COc1ccccc1N1CCN(C(=O)CN(/N=C/c2ccc(Cl)cc2)C(=O)c2ccncc2)CC1`, for which, in assay [1], the MIC was > 16 µg/mL.

Turning to `COc1ccccc1N1CCN(C(=O)CN(/N=C/c2ccccc2Cl)C(=O)c2ccncc2)CC1`, the MIC in assay [1] was > 16 µg/mL. The same measure, in the same setting: under `O=C(CN(/N=C/c1ccc(Cl)cc1)C(=O)c1ccncc1)N1CCN(c2ccc(Cl)cc2)CC1` stands > 16 µg/mL.

For `O=C(CN(/N=C/c1ccc(Cl)cc1Cl)C(=O)c1ccncc1)N1CCN(c2cccc(C(F)(F)F)c2)CC1`, in assay [1], the MIC is > 16 µg/mL. Turning to `O=C(CN(/N=C/c1ccccc1Cl)C(=O)c1ccncc1)N1CCN(c2ccccc2)CC1`, the MIC in assay [1] is > 16 µg/mL. For the molecule `O=C(CN(/N=C/c1ccccc1Cl)C(=O)c1ccncc1)N1CCN(c2ccc([N+](=O)[O-])cc2)CC1`, in assay [1], the MIC is > 16 µg/mL. The same measure, in the same setting: under `Cc1cccc(N2CCN(C(=O)CN(/N=C/c3ccc(Cl)cc3Cl)C(=O)c3ccncc3)CC2)c1` stands > 16 µg/mL. On the same count and under the same terms, under `O=C(CN(/N=C/c1ccccc1Cl)C(=O)c1ccncc1)N1CCN(c2cccc(Cl)c2)CC1` stands > 16 µg/mL; under `Cc1cccc(N2CCN(C(=O)CN(/N=C/c3ccccc3Cl)C(=O)c3ccncc3)CC2)c1`, > 16 µg/mL. On the same count and under the same terms, under `O=C(CN(/N=C/c1ccc(Cl)cc1)C(=O)c1ccncc1)N1CCN(c2ccc(F)cc2)CC1` stands > 16 µg/mL. `COc1ccccc1N1CCN(C(=O)CN(/N=C/c2cccc(Cl)c2)C(=O)c2ccncc2)CC1`: the MIC in assay [1] is > 16 µg/mL. With `O=C(CN(/N=C/c1ccccc1Cl)C(=O)c1ccncc1)N1CCN(c2cccc(C(F)(F)F)c2)CC1`, the MIC in assay [1] is > 16 µg/mL. Same read-out and setting: to `O=C(CN(/N=C/c1ccc(Cl)cc1Cl)C(=O)c1ccncc1)N1CCN(c2cccc(Cl)c2)CC1` belongs > 16 µg/mL; to `O=C(CN(/N=C/c1cccc(Cl)c1)C(=O)c1ccncc1)N1CCN(c2ccc(F)cc2)CC1`, > 16 µg/mL.

Regarding `O=C(CN(/N=C/c1cccc(Cl)c1)C(=O)c1ccncc1)N1CCN(c2cccc(Cl)c2)CC1`, the MIC in assay [1] is > 16 µg/mL. Same read-out and setting: under `O=C(CN(/N=C/c1ccc(Cl)cc1)C(=O)c1ccncc1)N1CCN(c2ccc([N+](=O)[O-])cc2)CC1` stands > 16 µg/mL. Take `COc1ccccc1N1CCN(C(=O)CN(/N=C/c2ccc(Cl)cc2Cl)C(=O)c2ccncc2)CC1`: in assay [1], the minimal inhibitory concentration (MIC) was > 16 µg/mL. Regarding `O=C(CN(/N=C/c1ccccc1Cl)C(=O)c1ccncc1)N1CCN(c2ccc(Cl)cc2)CC1`, the MIC in assay [1] is > 16 µg/mL. `O=C(CN(/N=C/c1ccc(Cl)cc1Cl)C(=O)c1ccncc1)N1CCN(Cc2ccc3c(c2)OCO3)CC1`: in assay [2], the MIC was determined as 4 µg/mL (≈ 7.21 µM).

For the molecule `O=C(CN(/N=C/c1ccc(Cl)cc1Cl)C(=O)c1ccncc1)N1CCN(c2ccc([N+](=O)[O-])cc2)CC1`, in assay [1], the MIC was > 16 µg/mL.

For the molecule `O=C(CN(/N=C/c1cccc(Cl)c1)C(=O)c1ccncc1)N1CCN(Cc2ccc3c(c2)OCO3)CC1`, the MIC in assay [3] came to 8 µg/mL (≈ 15.4 µM). Consider `O=C(CN(/N=C/c1ccc(Cl)cc1Cl)C(=O)c1ccncc1)N1CCN(c2ccccc2)CC1`, for which the MIC in assay [1] was > 16 µg/mL. `O=C(CN(/N=C/c1ccccc1Cl)C(=O)c1ccncc1)N1CCN(Cc2ccc3c(c2)OCO3)CC1`: the MIC in assay [4] turned out to be 16 µg/mL (≈ 30.8 µM). `Cc1cccc(N2CCN(C(=O)CN(/N=C/c3cccc(Cl)c3)C(=O)c3ccncc3)CC2)c1`: the MIC in assay [1] is > 16 µg/mL. Consider `O=C(CN(/N=C/c1ccc(Cl)cc1)C(=O)c1ccncc1)N1CCN(Cc2ccc3c(c2)OCO3)CC1`, for which, in assay [3], the MIC came out at 8 µg/mL (≈ 15.4 µM). With `O=C(CN(/N=C/c1ccccc1Cl)C(=O)c1ccncc1)N1CCN(c2cccc(Cl)c2Cl)CC1`, the MIC in assay [1] was > 16 µg/mL. Still for that read-out and setting: to `O=C(CN(/N=C/c1cccc(Cl)c1)C(=O)c1ccncc1)N1CCN(c2ccccc2)CC1` belongs > 16 µg/mL. Regarding `NNC(=O)c1ccncc1` [ISONIAZID], the MIC in assay [5] is 16 µg/mL (≈ 117 µM). As for `CO[C@H]1/C=C/O[C@@]2(C)Oc3c(C)c(O)c4c(O)c(c(/C=N/N5CCN(C)CC5)c(O)c4c3C2=O)NC(=O)/C(C)=C\C=C\[C@H](C)[C@H](O)[C@@H](C)[C@@H](O)[C@@H](C)[C@H](OC(C)=O)[C@@H]1C` [RIFAMPIN], the MIC in assay [6] was found to be 16 µg/mL (≈ 19.4 µM).
